Structures are written as SMILES.

The target of one test is BTK (TMD-8 cells) (Homo sapiens (Human), UniProt Q06187). Description: BTK degradation HTRF assay in TMD-8 cells (Test Example 3). It is filed as cell-based. Particulars: 6 h treatment, Table 5. The method, then: TMD-8 cells were treated with compounds diluted in 0.2% DMSO, dilution was done according to the following protocol: (1) making 500× stock solution in DMSO from 1 mM by 6-fold dilution, total 8 doses were included; (2) making 2× solution in cell culture medium by transferring 0.5 μl 500× stock solution into […]; (3) adding 15 μl of 2× solution to cells for incubation of 6 h.
After 6 h treatment, 10 μl 4xlysis buffer was added to each well; the plate was sealed and incubated for 30 min at room temperature on a plate shaker; Once the cells was lysed, 16 μL of cell lysate were transferred to a PE 384-well HTRF detection plate; 4 μL of pre-mixed HTRF antibodies were added to each well; the plate was covered with a plate sealer, and then spinned at 1000 rpm for 1 min, then incubated overnight at room temperature; the results were read on BMG PheraStar with HTRF protocol (337 nm-665 nm-620 nm).
(§1) The IC50 (DC50) value of a compound can be obtained by fitting the following equation
(§2) Y=Bottom+(TOP−Bottom)/(1+((IC50/X)^hillslope))
(§3) wherein, X and Y are known values, and IC50, Hillslope, Top and Bottom are the parameters obtained by fitting with software. Y is the inhibition percentage (calculated from the equation), X is the concentration of the compound; IC50 is the concentration of the compound when the 50% inhibition is reached. The smaller the IC50 value is, the stronger the inhibitory ability of the compound is. Vice versa, the higher the IC50 value is, the weaker the ability the inhibitory ability of the compound is; Hillslope represents the slope of the fitted curve, generally around 1*; Bottom represents the minimum value of the curve obtained by data fitting, which is generally 0%±20%; Top represents the maximum value of the curve obtained by data fitting, which is generally 100%±20%. The experimental data were fitted by calculating and analyzing with Dotmatics data analysis software.

For the next test, the system named is HEK-293 cells. Description: HEK-293 cytotoxicity detection (CellTiter-Glo). Type of test: cell-based. Conditions: Homo sapiens, HEK293, 72 h incubation. The method, then:
HEK-293 cells were treated with compounds diluted in 0.2% DMSO, dilution was done according to the following protocol: (1) making 500× stock solution in DMSO from 5 mM by 4-fold dilution, total 8 doses were included; (2) making 2× solution in cell culture medium by transferring 0.5ul 500× stock solution into 125ul medium; (3) adding 50ul of 2× solution to cells for incubation of 72 h.
25 μl of the CellTiter-Glo®Reagent [(Promega) - Cat No. G7572] was added to each well in the 96-well plate. The contents were mixed for 2 minutes on an orbital shaker to induce cell lysis. The plate was then allowed to incubate at room temperature for 10 minutes to stabilize luminescent signal. Luminescence was recorded on BMG PheraStar with luminescence protocol.
The IC50 value of a compound can be obtained by fitting the following equation
as §2
as §3, with “Wherein,” for “wherein,”

Test [1] concerns EGFR Del19/T790M/C797S (BaF3-DTC cells). Nature of the test: EGFR degradation HTRF assay in BaF3-DTC cells. It is filed as cell-based. Conditions: 16 h treatment, Table 1; for DTC Dmax: maximum percentage of degradation. The method, then: (§4) BaF3-LTC(L858R/T790M/C797S) and BaF3-DTC(Del19/T790M/C797S) cells are treated with compounds diluted in 0.2% DMSO cell culture medium and incubate for 16 h, 37° C., 5% CO2, H1975- #28 cells are treated with compounds diluted in 0.2% DMSO cell culture medium on day 2, incubate for 16 h, 37° C., 5% CO2. the final concentration of compounds in all assay is start with 10 uM, 5-fold dilution, total 8 doses were included.
(§5) After 16 h treatment, add HTRF lysis buffer to each well; seal the plate and incubate 1 hour at room temperature on a plate shaker; Once the cells are lysed, 16 μL of cell lysate are transferred to a PE 384-well HTRF detection plate; 4 μL of pre-mixed HTRF antibodies are added to each well; Cover the plate with a plate sealer, spin 1000 rpm for 1 min, Incubate overnight at room temperature; Read on BMG PheraStar with HTRF protocol (337 nm-665 nm-620 nm).
as §1, §2
as §3, with “Wherein,” for “wherein,”

Test [2] addresses EGFR L858R/T790M/C797S (BaF3-LTC cells) (Homo sapiens (Human), UniProt P00533, C797S/L858R/T790M). Description: EGFR degradation HTRF assay in BaF3-LTC cells. Type of test: cell-based. Conditions: 16 h treatment; for DC50: Table 1, read-out: LTC DC50; for Dmax: maximum percentage of degradation, Table 1, read-out: LTC Dmax. The method, then: as §4, §5, §1, §2
as §3, with “Wherein,” for “wherein,”

The target in a further test is CRBN&DDB1 protein (Homo sapiens (Human), UniProt Q96SW2). Nature of the test: CRBN&DDB1 HTRF (TR-FRET) assay, blocking binding of biotin labeled thalidomide. Particulars: CRBN&DDB1 protein (His Tag), 30 nM biotin labeled thalidomide. The method, then:
Biochemical potency of compound was determined by using CRBN& DDB1 protein (His Tag). Compounds were tested for blocking the binding of CRBN&DDB1 protein (CRBN, aa 40-442, DDB1, 1-1140, Viva Biotech) with biotin labeled thalidomide in an assay based on the time-resolved fluorescence-resonance energy transfer (TR-FRET) methodology. The assay was carried out in 384-well low volume black plates in a reaction mixture containing CRBN& DDB1 protein, 30 nM biotin labeled thalidomide and 0-10 μM compound in buffer containing 50 mM HEPES pH7.5, 50 mM NaCl, 0.01% BSA, 1 mM DTT and 0.015% Brij-35. The protein was preincubated with compound for 60 minutes at room temperature and biotin labeled thalidomide was added to plate. After further incubation at room temperature for 60 minutes detection reagents Mab Anti-6His Eu cryptate Gold (Cisbio, Cat #61HI2KLB) and Streptavidin-XL665 (Cisbio, Cat #610SAXLG) were added to plate. Plates were sealed and incubated at room temperature for 1 hour, and the TR-FRET signals (ex337 nm, em665 nm/620 nm) were recorded on a PHERAstar FSX plate reader (BMG Labtech). The inhibition percentage of CRBN& DDB1 protein interaction with biotin labeled thalidomide in presence of increasing concentrations of compounds was calculated based on the ratio of fluorescence at 665 nm to that at 620 nm. IC50 was derived from fitting the dose-response % inhibition data to the four-parameter logistic model by Dotmatics.
Four-parameter logistic equation: Y=Bottom+(Top−Bottom)/(1+10^((LogIC50−X) *HillSlope)). While X is Log of compound concentration. Y is % inhibition at X. Bottom is the bottom of the curve effect. Top is the top of the curve effect. HillSlope is the hill slope factor.

Chain of CRBN&DDB1 protein (Q96SW2 40-442): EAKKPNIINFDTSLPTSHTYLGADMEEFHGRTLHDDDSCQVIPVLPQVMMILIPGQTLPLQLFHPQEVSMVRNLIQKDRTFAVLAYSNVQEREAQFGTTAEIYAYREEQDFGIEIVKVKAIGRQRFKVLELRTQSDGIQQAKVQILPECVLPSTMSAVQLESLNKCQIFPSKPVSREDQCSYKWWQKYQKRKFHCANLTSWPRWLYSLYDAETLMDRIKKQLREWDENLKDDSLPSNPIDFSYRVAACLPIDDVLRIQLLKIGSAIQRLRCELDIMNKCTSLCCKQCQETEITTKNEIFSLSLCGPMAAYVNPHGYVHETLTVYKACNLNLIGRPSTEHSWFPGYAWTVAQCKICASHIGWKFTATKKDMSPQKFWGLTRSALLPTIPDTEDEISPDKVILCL
Chain of CRBN&DDB1 protein (Q16531 whole entry partner, the tested form may be a part): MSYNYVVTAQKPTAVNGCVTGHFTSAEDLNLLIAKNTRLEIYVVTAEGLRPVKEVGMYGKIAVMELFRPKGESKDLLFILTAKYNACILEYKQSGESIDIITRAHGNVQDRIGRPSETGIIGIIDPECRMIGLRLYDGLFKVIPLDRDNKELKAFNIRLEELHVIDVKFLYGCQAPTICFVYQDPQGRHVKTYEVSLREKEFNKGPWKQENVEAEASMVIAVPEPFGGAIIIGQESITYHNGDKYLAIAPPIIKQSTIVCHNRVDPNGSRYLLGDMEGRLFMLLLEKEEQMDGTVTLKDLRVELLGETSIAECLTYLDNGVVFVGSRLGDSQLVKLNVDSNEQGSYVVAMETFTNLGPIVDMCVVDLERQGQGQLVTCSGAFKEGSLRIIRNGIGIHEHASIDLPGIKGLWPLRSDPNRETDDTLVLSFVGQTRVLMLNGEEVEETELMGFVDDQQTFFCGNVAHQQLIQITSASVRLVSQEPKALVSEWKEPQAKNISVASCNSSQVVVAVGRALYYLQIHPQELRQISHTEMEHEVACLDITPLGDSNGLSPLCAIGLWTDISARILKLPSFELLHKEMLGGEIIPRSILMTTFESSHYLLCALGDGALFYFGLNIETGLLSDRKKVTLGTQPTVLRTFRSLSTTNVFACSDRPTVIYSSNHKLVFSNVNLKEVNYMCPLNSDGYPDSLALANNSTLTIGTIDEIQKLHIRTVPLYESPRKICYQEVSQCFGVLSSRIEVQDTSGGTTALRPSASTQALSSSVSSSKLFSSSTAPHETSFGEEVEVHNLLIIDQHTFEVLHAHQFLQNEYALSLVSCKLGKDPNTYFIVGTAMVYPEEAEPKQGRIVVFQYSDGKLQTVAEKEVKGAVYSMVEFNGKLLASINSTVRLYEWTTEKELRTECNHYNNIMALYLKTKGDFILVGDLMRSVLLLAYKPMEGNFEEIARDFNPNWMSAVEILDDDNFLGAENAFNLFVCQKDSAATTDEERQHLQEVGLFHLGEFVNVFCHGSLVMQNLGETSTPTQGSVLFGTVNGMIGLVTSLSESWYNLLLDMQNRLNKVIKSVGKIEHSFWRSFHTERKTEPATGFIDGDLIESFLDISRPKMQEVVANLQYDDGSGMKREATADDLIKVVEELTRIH
Chain of BTK (TMD-8 cells) (Q06187 whole entry): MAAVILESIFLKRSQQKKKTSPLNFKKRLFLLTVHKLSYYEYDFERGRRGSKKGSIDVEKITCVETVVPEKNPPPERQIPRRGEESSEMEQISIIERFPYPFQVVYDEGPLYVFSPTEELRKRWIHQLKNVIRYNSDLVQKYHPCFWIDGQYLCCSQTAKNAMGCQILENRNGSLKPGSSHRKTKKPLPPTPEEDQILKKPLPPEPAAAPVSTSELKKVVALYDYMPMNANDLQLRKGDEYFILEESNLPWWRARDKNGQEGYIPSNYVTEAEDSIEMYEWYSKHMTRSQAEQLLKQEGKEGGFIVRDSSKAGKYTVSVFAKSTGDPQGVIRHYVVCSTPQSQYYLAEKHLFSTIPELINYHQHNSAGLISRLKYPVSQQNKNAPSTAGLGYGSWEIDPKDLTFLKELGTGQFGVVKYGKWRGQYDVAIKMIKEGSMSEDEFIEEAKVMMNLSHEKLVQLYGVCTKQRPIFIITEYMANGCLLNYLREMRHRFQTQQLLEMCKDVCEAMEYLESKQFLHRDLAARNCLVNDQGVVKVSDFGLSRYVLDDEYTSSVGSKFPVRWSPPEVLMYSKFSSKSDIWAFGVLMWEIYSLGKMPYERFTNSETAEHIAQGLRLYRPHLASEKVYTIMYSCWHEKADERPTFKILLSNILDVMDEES
Chain of EGFR L858R/T790M/C797S (BaF3-LTC cells) (P00533 25-1210 T790M/C797S/L858R): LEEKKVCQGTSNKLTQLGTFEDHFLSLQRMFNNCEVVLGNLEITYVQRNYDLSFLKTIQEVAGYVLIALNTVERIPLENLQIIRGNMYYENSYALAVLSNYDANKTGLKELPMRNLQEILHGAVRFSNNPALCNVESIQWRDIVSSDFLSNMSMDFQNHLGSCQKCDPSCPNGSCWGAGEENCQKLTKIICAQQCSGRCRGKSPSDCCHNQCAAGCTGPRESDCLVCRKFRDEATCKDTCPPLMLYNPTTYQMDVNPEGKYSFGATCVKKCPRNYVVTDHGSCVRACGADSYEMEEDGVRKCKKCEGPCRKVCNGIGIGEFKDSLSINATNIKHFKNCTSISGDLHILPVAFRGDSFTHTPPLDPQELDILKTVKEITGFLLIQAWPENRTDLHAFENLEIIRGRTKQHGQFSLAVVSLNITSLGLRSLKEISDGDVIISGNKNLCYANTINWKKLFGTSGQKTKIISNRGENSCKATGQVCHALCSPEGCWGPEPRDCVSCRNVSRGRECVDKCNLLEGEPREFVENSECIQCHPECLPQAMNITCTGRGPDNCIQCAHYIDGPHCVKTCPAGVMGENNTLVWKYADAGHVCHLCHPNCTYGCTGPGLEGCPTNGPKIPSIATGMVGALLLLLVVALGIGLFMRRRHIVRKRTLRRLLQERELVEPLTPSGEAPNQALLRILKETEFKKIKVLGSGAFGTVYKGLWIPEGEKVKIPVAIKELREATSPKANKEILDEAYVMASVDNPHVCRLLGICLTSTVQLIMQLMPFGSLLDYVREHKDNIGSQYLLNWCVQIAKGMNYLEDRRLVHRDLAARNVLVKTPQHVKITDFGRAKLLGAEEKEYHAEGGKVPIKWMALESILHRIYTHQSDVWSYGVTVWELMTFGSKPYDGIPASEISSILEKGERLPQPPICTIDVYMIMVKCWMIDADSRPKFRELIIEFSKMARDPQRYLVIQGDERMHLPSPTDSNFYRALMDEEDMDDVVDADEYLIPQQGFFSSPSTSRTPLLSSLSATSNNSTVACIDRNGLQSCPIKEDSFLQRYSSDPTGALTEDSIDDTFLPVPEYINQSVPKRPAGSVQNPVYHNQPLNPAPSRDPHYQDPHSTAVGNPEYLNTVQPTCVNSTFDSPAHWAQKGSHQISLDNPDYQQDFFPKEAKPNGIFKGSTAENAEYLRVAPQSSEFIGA

Turning to `Cc1cc(-c2cc(Nc3cccc(N4CCN(CC5CCN(c6ccc(N7CCC(=O)NC7=O)cc6)CC5)CC4)c3)ncn2)c(F)cc1[C@@H](C)NC(=O)c1nc(C(C)(C)C)no1` [Example C39, (R)-3-(tert-butyl)-N-(1-(4-(6-((3-(4-((1-(4-(2,4-dioxotetrahydropyrimidin-1(21)-yl)phenyl)piperidin-4-yl)methyl)piperazin-1-yl)phenyl)amino)pyrimidin-4-yl)-5-fluoro-2-methylphenyl)ethyl)-1,2,4-oxadiazole-5-carboxamide], the DC50 on BTK (TMD-8 cells) is 242 nM. The molecule also showed an IC50 in the test on HEK-293 cells greater than 10000 nM.

On to `CCc1cc(Nc2ncc(Br)c(Nc3ccc4nccnc4c3P(C)(C)=O)n2)c(OC)cc1N1CCC(N2CCN(CCc3cc(F)c(C4CCC(=O)NC4=O)c(F)c3)CC2)CC1` (stereo not drawn) [Example 18, 3-(4-(2-(4-(1-(4-((5-bromo-4-((5-(dimethylphosphoryl)quinoxalin-6-yl)amino)pyrimidin-2-yl)amino)-2-ethyl-5-methoxyphenyl)piperidin-4-yl)piperazin-1-yl)ethyl)-2,6-difluorophenyl)piperidine-2,6-dione], for which, in test [1], the DC50 was 3.74 nM and the “DTC Dmax” value worked out at 95.55%. For the same molecule, the DC50 in test [2] turned out to be 8.82 nM.

With `O=C1CCC(c2ccc(N3CC[C@@H](C(=O)O)C3)cc2)C(=O)N1` (stereo partly drawn) [Example 12, (3R)-1-(4-(2,6-dioxopiperidin-3-yl)phenyl)pyrrolidine-3-carboxylic acid], at CRBN&DDB1 protein, the IC50 was determined as 178 nM. That is a sub-micromolar value.

In the case of `CCc1cc(Nc2ncc(Br)c(Nc3ccc4nccnc4c3P(C)(C)=O)n2)c(OC)cc1N1CCC(N2CCN(CCc3cc(F)c([C@@H]4CCC(=O)NC4=O)c(F)c3)CC2)CC1` [Example 17, (S)-3-(4-(2-(4-(1-(4-((5-bromo-4-((5-(dimethylphosphoryl)quinoxalin-6-yl)amino)pyrimidin-2-yl)amino)-2-ethyl-5-methoxyphenyl)piperidin-4-yl)piperazin-1-yl)ethyl)-2,6-difluorophenyl)piperidine-2,6-dione], in test [1], the 50% degradation concentration (DC50) is 6.75 nM and the “DTC Dmax” value is on record as 64.81%. Also, in test [2], the DC50 stood at 45.1 nM and the Dmax stood at 84.6%.

At BTK (TMD-8 cells), `Cc1c(C(=O)Nc2cscn2)ccc(-c2nn3c(c2C(N)=O)Nc2ccc(N4CCN(CCc5cc(F)c([C@H]6CCC(=O)NC6=O)c(F)c5)CC4)cc2CC3)c1F` [Example B38, (R)-7-(4-(4-(2,6-dioxopiperidin-3-yl)-3,5-difluorophenethyl)piperazin-1-yl)-2-(2-fluoro-3-methyl-4-(thiazol-4-ylcarbamoyl)phenyl)-9,10-dihydro-4H-benzo[d]pyrazolo[1,5-a][1,3]diazepine-3-carboxamide] showed a DC50 of 1.7 nM. Moreover, half-maximal inhibition in the test with HEK-293 cells (IC50) was put at 26.8 nM.

As to `CCc1cc(Nc2ncc(Br)c(Nc3ccc4nccnc4c3P(C)(C)=O)n2)c(OC)cc1N1CCC(N2CCN(CCc3cc(F)c([C@H]4CCC(=O)NC4=O)c(F)c3)CC2)CC1` [Example 16, (R)-3-(4-(2-(4-(1-(4-((5-bromo-4-((5-(dimethylphosphoryl)quinoxalin-6-yl)amino)pyrimidin-2-yl)amino)-2-ethyl-5-methoxyphenyl)piperidin-4-yl)piperazin-1-yl)ethyl)-2,6-difluorophenyl)piperidine-2,6-dione], in test [1], the DC50 amounted to 0.61 nM and the “DTC Dmax” value is listed as 88.65%. In test [2], the DC50 amounted to 6.1 nM and the Dmax came out at 91.5%.

On to `Cc1cccc(NC(=O)c2ccc(-c3nn4c(c3C(N)=O)Nc3ccc(N5CCN(CCc6cc(F)c([C@H]7CCC(=O)NC7=O)c(F)c6)CC5)cc3CC4)c(F)c2C)n1` [Example B35, (R)-7-(4-(4-(2,6-dioxopiperidin-3-yl)-3,5-difluorophenethyl)piperazin-1-yl)-2-(2-fluoro-3-methyl-4-((6-methylpyridin-2-yl)carbamoyl)phenyl)-9,10-dihydro-4H-benzo[d]pyrazolo[1,5-a][1,3]diazepine-3-carboxamide], for which the DC50 on BTK (TMD-8 cells) was 2.32 nM. The same molecule had an IC50 with HEK-293 cells greater than 10000 nM.

Molecule `CCO/C=C/c1cc(F)c([C@H]2CCC(=O)NC2=O)c(F)c1` [Example 13, (R,E)-3-(4-(2-ethoxyvinyl)-2,6-difluorophenyl)piperidine-2,6-dione] returned an IC50 at CRBN&DDB1 protein of 27 nM.

As to `O=C1CC[C@H](c2c(F)cc(N3CC[C@@H](C(=O)O)C3)cc2F)C(=O)N1` [Example 5, (R)-1-(4-((R)-2,6-dioxopiperidin-3-yl)-3,5-difluorophenyl)pyrrolidine-3-carboxylic acid], the IC50 at CRBN&DDB1 protein was found to be 26 nM.

In turn, `CCO/C=C/c1cc(F)c([C@@H]2CCC(=O)NC2=O)c(F)c1` [Example 2, (S,E)-3-(4-(2-ethoxyvinyl)-2,6-difluorophenyl)piperidine-2,6-dione] came in with an IC50 on CRBN&DDB1 protein of 406 nM.

In the case of `CCc1cc(Nc2ncc(Br)c(Nc3ccc4nccnc4c3P(C)(C)=O)n2)c(OC)cc1N1CCC(N2CCN(CCc3ccc(C4CCC(=O)NC4=O)cc3)CC2)CC1` (stereo not drawn) [Example 19, 3-(4-(2-(4-(1-(4-((5-bromo-4-((5-(dimethylphosphoryl)quinoxalin-6-yl)amino)pyrimidin-2-yl)amino)-2-ethyl-5-methoxyphenyl)piperidin-4-yl)piperazin-1-yl)ethyl)phenyl)piperidine-2,6-dione], the DC50 in test [1] stood at 6.87 nM; in test [2], 18.2 nM. For the same molecule, the “DTC Dmax” value in test [1] came out at 92.16%.

Source of the values: US20240207267A1, “(R)-Glutarimide CRBN Ligands and Methods of Use” (BeiGene Switzerland GmbH, priority 2021, published 2024).
